Experimental data: patent US8993574B2, “Pyrrole antifungal agents” (F2G Ltd, priority 2008, dated 2015)
≈ marks a conversion by molar mass, not a printed value.

Tests used:
Format in all cases: cell-based
Aspergillus niger [1] = assay: MIC, RPMI medium; details: MIC banded into grades; for MIC: Aspergillus niger, read-out: MIC grade, A. niger
Outline: (§1)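 Broth microdilution in RPMI with 2% glucose, 0.135 M MOPS pH 7.0; compounds as doubling dilutions, 50-0.05 mg/L, inoculum 1−2×10^4 cfu/mL. Incubated 24-48 h at 35° C; growth by OD 485 nm. MIC is lowest concentration giving >80% growth inhibition versus drug-free control.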

Aspergillus terreus AT49 [2] = assay: MIC, RPMI medium; details: for MIC: Aspergillus terreus, AT49, MIC banded into grades, read-out: MIC grade, A. terreus 49
Outline: as §1

[3] = test system: Aspergillus fumigatus AF210; assay: MIC, RPMI medium; details: for MIC: Aspergillus fumigatus, AF210, MIC banded into grades, read-out: MIC grade, A. fumigatus 210
Outline: as §1

Aspergillus flavus [4] = assay: MIC, RPMI medium; details: MIC banded into grades; for MIC: Aspergillus flavus, read-out: MIC grade, A. flavus
Outline: as §1

Aspergillus terreus AT4 [5] = assay: MIC, RPMI medium; details: for MIC: Aspergillus terreus, AT4, MIC banded into grades, read-out: MIC grade, A. terreus
Outline: as §1

[6] = test system: Aspergillus fumigatus AF293; assay: MIC, RPMI medium; details: for MIC: Aspergillus fumigatus, AF293, MIC banded into grades, read-out: MIC grade, A. fumigatus
Outline: as §1

Aspergillus niger [7] = assay: MIC, YAG medium; details: 24 h at 35° C, MIC banded into grades; for MIC: Aspergillus niger, read-out: MIC grade, A. niger
Outline: (§2)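 Growth inhibition was measured by absorbance at 485 nm following 24 h at 35° C. Spores harvested after 5 days on Sabouraud agar served as inoculum (1−2×10^4 cfu/mL, YAG medium). The lowest drug level producing >70% inhibition was taken as MIC.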

Aspergillus terreus AT49 [8] = assay: MIC, YAG medium; details: 24 h at 35° C, MIC banded into grades; for MIC: Aspergillus terreus, read-out: MIC grade, A. terreus 49
Outline: as §2

[9] = test system: Aspergillus fumigatus AF210; assay: MIC, YAG medium; details: 24 h at 35° C, MIC banded into grades; for MIC: Aspergillus fumigatus, read-out: MIC grade, A. fumigatus 210
Outline: as §2

Aspergillus flavus [10] = assay: MIC, YAG medium; details: 24 h at 35° C, MIC banded into grades; for MIC: Aspergillus flavus, 24 h, read-out: MIC grade, A. flavus
Outline: as §2

Aspergillus terreus AT4 [11] = assay: MIC, YAG medium; details: 24 h at 35° C, MIC banded into grades; for MIC: Aspergillus terreus, read-out: MIC grade, A. terreus
Outline: as §2

[12] = test system: Aspergillus fumigatus AF293; assay: MIC, YAG medium; details: 24 h at 35° C, MIC banded into grades; for MIC: Aspergillus fumigatus, read-out: MIC grade, A. fumigatus
Outline: as §2

MIC (Aspergillus niger [1]) | MIC (Aspergillus terreus AT49 [2]) | MIC [3] | MIC (Aspergillus flavus [4]) | MIC (Aspergillus terreus AT4 [5]) | MIC [6] | MIC (Aspergillus niger [7]) | MIC (Aspergillus terreus AT49 [8]) | MIC [9] | MIC (Aspergillus flavus [10]) | MIC (Aspergillus terreus AT4 [11]) | MIC [12] | SMILES | other results
 |  |  |  |  |  |  |  |  |  |  |  | COC(=O)Cn1cccc1C(=O)C(=O)Nc1ccc(N2CCN(c3cc(C)cc(C)n3)CC2)cc1 [Example 61, (2-{4-[4-(4,6-Dimethyl-pyridin-2-yl)-piperazin-1-yl]-phenylaminooxalyl}-pyrrol-1-yl)-acetic acid methyl ester] | MIC grade, A. niger (Aspergillus niger [1]): 1 (a grade of 1 represents an MIC of greater than 10 mg/L); MIC grade, A. terreus 49 (Aspergillus terreus AT49 [2]; MIC banded into grades): 1 (a grade of 1 represents an MIC of greater than 10 mg/L); MIC grade, A. fumigatus 210 ([3]; MIC banded into grades): 2 (A grade of 2 represents an MIC of from 1 to 10 mg/L); MIC grade, A. flavus (Aspergillus flavus [4]): 1 (a grade of 1 represents an MIC of greater than 10 mg/L); MIC grade, A. terreus (Aspergillus terreus AT4 [5]; MIC banded into grades): 1 (a grade of 1 represents an MIC of greater than 10 mg/L); MIC grade, A. fumigatus ([6]; MIC banded into grades): 1 (a grade of 1 represents an MIC of greater than 10 mg/L); MIC grade, A. niger (Aspergillus niger [7]): 1 (a grade of 1 represents an MIC of greater than 10 mg/L); MIC grade, A. terreus 49 (Aspergillus terreus AT49 [8]): 1 (a grade of 1 represents an MIC of greater than 10 mg/L); MIC grade, A. fumigatus 210 [9]: 2 (A grade of 2 represents an MIC of from 1 to 10 mg/L); MIC grade, A. flavus (Aspergillus flavus [10]): 1 (a grade of 1 represents an MIC of greater than 10 mg/L); MIC grade, A. terreus (Aspergillus terreus AT4 [11]): 1 (a grade of 1 represents an MIC of greater than 10 mg/L); MIC grade, A. fumigatus [12]: 1 (a grade of 1 represents an MIC of greater than 10 mg/L)
> 10 µg/mL | 1 to 10 µg/mL (≈ 2.14 to 21.4 µM) | > 10 µg/mL | 1 to 10 µg/mL (≈ 2.14 to 21.4 µM) | 1 to 10 µg/mL (≈ 2.14 to 21.4 µM) | 1 to 10 µg/mL (≈ 2.14 to 21.4 µM) | > 10 µg/mL | < 1 µg/mL | 1 to 10 µg/mL (≈ 2.14 to 21.4 µM) | < 1 µg/mL | > 10 µg/mL | 1 to 10 µg/mL (≈ 2.14 to 21.4 µM) | Cc1cc(-c2ccccc2)c(C(=O)C(=O)Nc2cccc3c(N4CCN(C)CC4)cccc23)n1C [Example 49, 2-(1,5-Dimethyl-3-phenyl-1H-pyrrol-2-yl)-N-[5-(4-methyl-piperazin-1-yl)-naphthalen-1-yl]-2-oxo-acetamide] | 
> 10 µg/mL | 1 to 10 µg/mL (≈ 1.91 to 19.1 µM) | 1 to 10 µg/mL (≈ 1.91 to 19.1 µM) | > 10 µg/mL | 1 to 10 µg/mL (≈ 1.91 to 19.1 µM) | 1 to 10 µg/mL (≈ 1.91 to 19.1 µM) | > 10 µg/mL | < 1 µg/mL | 1 to 10 µg/mL (≈ 1.91 to 19.1 µM) | 1 to 10 µg/mL (≈ 1.91 to 19.1 µM) | 1 to 10 µg/mL (≈ 1.91 to 19.1 µM) | < 1 µg/mL | Cc1cc(C)nc(N2CCN(c3ccc(NC(=O)C(=O)c4c(-c5ccccc5)ccn4CCO)cc3)CC2)c1 [Example 66, N-{4-[4-(4,6-Dimethyl-pyridin-2-yl)-piperazin-1-yl]-phenyl}-2-[1-(2-hydroxy-ethyl)-3-phenyl-1H-pyrrol-2-yl]-2-oxo-acetamide] | 
1 to 10 µg/mL (≈ 1.77 to 17.7 µM) | > 10 µg/mL | 1 to 10 µg/mL (≈ 1.77 to 17.7 µM) | > 10 µg/mL | > 10 µg/mL | 1 to 10 µg/mL (≈ 1.77 to 17.7 µM) | 1 to 10 µg/mL (≈ 1.77 to 17.7 µM) | 1 to 10 µg/mL (≈ 1.77 to 17.7 µM) | < 1 µg/mL | > 10 µg/mL | 1 to 10 µg/mL (≈ 1.77 to 17.7 µM) | < 1 µg/mL | CCOCCn1c(C)cc(-c2ccccc2)c1C(=O)C(=O)Nc1ccc(N2CCN(c3cc(C)cc(C)n3)CC2)cc1 [Example 27, N-{4-[4-(4,6-Dimethyl-pyridin-2-yl)-piperazin-1-yl]-phenyl}-2-[1-(2-ethoxy-ethyl)-5-methyl-3-phenyl-1H-pyrrol-2-yl]-2-oxo-acetamide] | 
< 1 µg/mL | < 1 µg/mL | < 1 µg/mL | < 1 µg/mL | < 1 µg/mL | < 1 µg/mL | < 1 µg/mL | < 1 µg/mL | < 1 µg/mL | < 1 µg/mL | < 1 µg/mL | < 1 µg/mL | COCn1c(C)cc(-c2ccccc2)c1C(=O)C(=O)Nc1ccc(N2CCN(c3cc(C)cc(C)n3)CC2)cc1 [Example 62, N-{4-[4-(4,6-Dimethyl-pyridin-2-yl)-piperazin-1-yl]-phenyl}-2-(1-methoxymethyl-5-methyl-3-phenyl-1H-pyrrol-2-yl)-2-oxo-acetamide] | 
